# Source: US20250019370A1, “L-LYSINE SALT OF 4-CHLORO-5-[4-(2,6-DICHLOROPHENYL)SULFONYLPIPERAZIN-1-YL]-1-BENZOFURAN-2-CARBOXYLIC ACID AND VARIOUS FORMS THEREOF” (ENYO PHARMA, priority 2023, published 2025)
# Columns and labels:
# Format in all cases: physicochemical
# [1] = Solubility kinetics in FaSSIF medium
# Experimental: The solubility kinetics of the salt forms as well as the native EYP001 free acid form were determined in FaSSIF and FeSSIF media, and in a pH 4.5 acetate buffer as detailed below: The samples were prepared by adding an excess of each tested bulk (salt or native EYP001) to a given volume of test medium. The suspension was stirred by orbital stirring over 1 hour (in both pH 4.5 acetate buffer and FeSSIF medium) or 24 hours ([…] medium) at 37° C., protected from light. In FaSSIF medium, the soluble concentration was assessed after 24 hours of stirring. […] At each time point, the “supernatant” was isolated and diluted in a solvent mixture allowing its injection into the chromatographic system. The concentration in solution in the test medium was determined by HPLC with external standardization.
# [2] = Solubility kinetics in pH 4.5 acetate buffer; conditions: for Soluble fraction: 37 ° C., listed as EYP001 L-Lysine salt (Form I)
# Experimental: The solubility kinetics of the salt forms as well as the native EYP001 free acid form were determined in FaSSIF and FeSSIF media, and in a pH 4.5 acetate buffer as detailed below:
# The samples were prepared by adding an excess of each tested bulk (salt or native EYP001) to a given volume of test medium. The suspension was stirred by orbital stirring over 1 hour (in both pH 4.5 acetate buffer and FeSSIF medium) or 24 hours (inFaSSIF medium) at 37° C., protected from light.
# In pH 4.5 acetate buffer, the soluble concentration was assessed after 0.5 hour and 1 hour of stirring.
# At each time point, the “supernatant” was isolated and diluted in a solvent mixture allowing its injection into the chromatographic system. The concentration in solution in the test medium was determined by HPLC with external standardization.
# [3] = Solubility kinetics in FeSSIF medium; conditions: for Soluble fraction: 37 ° C.; for Soluble fraction / pH: listed as EYP001 L-Lysine salt (Form I); for pH: pH printed with the soluble fraction
# Experimental: The solubility kinetics of the salt forms as well as the native EYP001 free acid form were determined in FaSSIF and FeSSIF media, and in a pH 4.5 acetate buffer as detailed below: The samples were prepared by adding an excess of each tested bulk (salt or native EYP001) to a given volume of test medium. […] In FaSSIF medium, the soluble concentration was assessed after 24 hours of stirring. […] At each time point, the “supernatant” was isolated and diluted in a solvent mixture allowing its injection into the chromatographic system. The concentration in solution in the test medium was determined by HPLC with external standardization.
smiles,measurement,setting,value
"NCCCC[C@H](N)C(=O)O.O=C(O)c1cc2c(Cl)c(N3CCN(S(=O)(=O)c4c(Cl)cccc4Cl)CC3)ccc2o1 [EYP001 L-lysine salt Form I, L-lysine salt of 4-chloro-5-[4-(2,6-dichlorophenyl)sulfonylpiperazin-1-yl]-1-benzofuran-2-carboxylic acid]","solubility compared to EYP001 free acid, Piperazine, Morpholine, Imidazole, Benethamine, Zinc and Cyclohexylamine salts",[1]; 37° C.,higher solubility
same,Soluble fraction,"[1]; 37° C., after 24 h",0.31 mg/mL of EYP001
same,pH,"[1]; pH given with the soluble fraction, after 24 h",6.6
same,"solubility compared to EYP001 free acid, Benethamine, Zinc, Benzathine and Ethylene diamine salts",[2]; 37° C.,much higher solubility
same,Soluble fraction,[2]; after 0.5 h,0.010 mg/mL of EYP001
same,Soluble fraction,[2]; after 1 h,0.006 mg/mL of EYP001
same,solubility compared to EYP001 free acid and EYP001 Potassium salt,[3]; 37° C.,higher solubility
same,Soluble fraction,[3]; after 0.5 h,0.44 mg/mL of EYP001
same,Soluble fraction,[3]; after 1 h,0.46 mg/mL of EYP001
same,pH,[3]; after 0.5 h,(pH = 5.0)
same,pH,[3]; after 1 h,(pH = 5.0)
